The record followed here is PubChem BioAssay (NCI).

What all share (test): NCI tumour cell line growth inhibition, 48 h
Assay [1] concerns 786-0 renal.
In assay [2] the test system is DU-145 prostate.
The test system of assay [3] is HOP-62 NSCLC.
The subject of assay [4] is K-562 leukemia.
Assay [5] deals with MDA-MB-435.
The test system of assay [6] is NCI/ADR-RES ovarian.
The test system of assay [7] is OVCAR-3 ovarian.
For assay [8], the system named is RXF 393 renal.
Assay [9] has as its system SK-MEL-2 melanoma.
Assay [10] deals with T-47D breast.

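Cultured in 96-well plates, cells were exposed to test compound for 48 hours across five concentrations. TGI: concentration producing complete growth inhibition.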 A value given as a limit tells only on which side of the number the result lay.

In the case of `CSCCC(NC(=O)Cc1ccc(C(=O)c2ccccc2)cc1)C(=O)O` (stereo not given), the TGI in assay [1], in assay [2], in [3], in assay [4], in [5] and in [6] was greater than 100 µM each time. In addition, the TGI in assay [7], in assay [8], in assay [9] and in assay [10] was greater than 100 µM each time.
Consider `O=C(CSC1=NCCN1)Nc1ccccc1`, for which the TGI was 50.1 µM in [1]; greater than 100 µM in [2]; greater than 100 µM in assay [3]; greater than 100 µM in assay [4]; greater than 100 µM in assay [5]; 73.6 µM in assay [6]. Also, the TGI in [7] stood at 51.4 µM; in assay [8], 33.3 µM; in assay [9] it was 44.5 µM; in [10], 61.2 µM.
For the compound `COC(=O)C1=C(C)N2[C@H](C(=O)O)CO[C@@]2(C)[C@H](C(=O)OC)[C@H]1c1cccc([N+](=O)[O-])c1`, the TGI in [1], in assay [2], in assay [3], in assay [4], in [5] and in assay [6] was greater than 100 µM each time. Besides, the TGI in [7], in assay [8], in [9] and in assay [10] was greater than 100 µM each time.
As to `Fc1ccccc1C1SCc2nc3cc4ccccc4cc3n21` (stereo not given), the TGI was 51.5 µM in assay [1]; greater than 100 µM in assay [2]; greater than 100 µM in assay [3]; greater than 100 µM in [4]; greater than 100 µM in assay [5]; greater than 100 µM in assay [6]. The TGI was greater than 100 µM in [7], 80.1 µM in assay [8], greater than 100 µM in [9] and greater than 100 µM in assay [10].
On to `COC(=O)C1=C(OC(=O)c2ccccc2)C(C(=O)OC)[C@]2(O)[C@@H](C(=O)OC)[C@H]1C[C@@H](c1ccccc1)[C@@H]2C(=O)OC` (stereo not given in full), for which the TGI in assay [1] was 93.8 µM; in [2] it was 30.3 µM; in assay [3], 52 µM; in assay [4], 18 µM; in assay [5] it was 10.8 µM; in assay [6], 14.1 µM. Moreover, the TGI is 57.4 µM in assay [7], 19.8 µM in assay [8], 13.9 µM in assay [9] and 33.8 µM in [10].
As for `N#C/C(=C\c1c[nH]c2ccccc12)C(=O)c1ccc(O)c(O)c1`, the TGI in [1] is greater than 62 µM; in [2], greater than 100 µM; in [3], greater than 61.5 µM; in assay [4] it was greater than 67 µM; in assay [5], greater than 100 µM; in assay [6] it was 70.1 µM. The TGI was 17.2 µM in assay [7], greater than 100 µM in assay [8], greater than 80.3 µM in [9] and greater than 100 µM in assay [10].
Take `Cc1nc(-c2ccc(N=Cc3ccc(N(CCOS(C)(=O)=O)CCOS(C)(=O)=O)cc3C)cc2)cs1`: the TGI is 47.5 µM in assay [1]; greater than 100 µM in assay [2]; greater than 100 µM in assay [3]; greater than 100 µM in assay [4]; greater than 100 µM in assay [5]; greater than 100 µM in assay [6]. Moreover, the TGI in [7] was greater than 100 µM; in assay [8], 53.9 µM; in assay [9] it was greater than 100 µM; in assay [10] it was 90.2 µM.
With `COc1nc(N)c(N=CC(OC(C)=O)C(OC(C)=O)C(COC(C)=O)OC(C)=O)c(=O)n1C` (stereo not given), the TGI in assay [1], in assay [2], in [3], in assay [4], in assay [5] and in assay [6] was greater than 100 µM throughout. For the same compound, the TGI in [7], in assay [8], in [9] and in assay [10] was greater than 100 µM in each case.
For `CC(C)(C)c1cc(C2COC(c3cc(C(C)(C)C)c(O)c(C(C)(C)C)c3)CO2)cc(C(C)(C)C)c1O` (stereo not given), the TGI in assay [1], in [2], in assay [3], in assay [4], in assay [5] and in assay [6] was greater than 100 µM each time. Moreover, the TGI in assay [7], in assay [8], in assay [9] and in assay [10] was greater than 100 µM in each case.
With `CCOc1cc(NC(C)=O)ccc1C(=O)NN1C(=O)C(Cl)C1c1ccco1` (stereo not given), the TGI is 30.8 µM in assay [1]; 31.1 µM in assay [2]; 35.7 µM in assay [3]; 51.3 µM in assay [4]; 32.3 µM in [5]; greater than 100 µM in assay [6]. Besides, the TGI in [7] was found to be 32 µM; in assay [8], 29 µM; in assay [9], 37.3 µM; in [10], 40.3 µM.
Turning to `O=C1C[C@@H](c2ccccc2)O[C@@H](c2ccccc2)C1`, the TGI in [1], in [2], in assay [3], in [4], in [5] and in assay [6] was greater than 100 µM in each case. Besides, the TGI in [7], in assay [8], in assay [9] and in assay [10] was greater than 100 µM each time.
In the case of `C[C@H]1C=C2[C@@H]3CC(C)(C(=O)O)CC[C@]3(C)CC[C@]2(C)[C@]2(C)CC[C@H]3C(C)(C)[C@@H](OC(=O)c4cccc5c(=O)c6ccccc6[nH]c45)CC[C@]3(C)[C@@H]12` (stereo not given in full), the TGI in assay [1], in [2], in assay [3], in [4], in assay [5] and in assay [6] was greater than 100 µM in each case. Besides, the TGI was greater than 100 µM in assay [7], greater than 100 µM in assay [8], greater than 100 µM in [9] and 87.5 µM in [10].
Take `c1ccc2c3c([nH]c2c1)C1CCCN1CC3` (stereo not given): the TGI in assay [1], in assay [2], in assay [3], in assay [4], in assay [5] and in assay [6] was greater than 10 µM in each case. Further, the TGI in assay [7], in assay [8], in [9] and in assay [10] was greater than 10 µM in each case.
For `OC(c1ccc(-c2ccccc2)cc1)C(F)(F)c1nc2ccccc2o1` (stereo not given), the TGI in assay [1] was 74.6 µM; in assay [2], greater than 82.7 µM; in assay [3], greater than 73.6 µM; in [4], greater than 61.3 µM; in [5], greater than 100 µM; in assay [6], greater than 100 µM. Also, the TGI in assay [7] is greater than 100 µM; in [8], 49.5 µM; in [9], greater than 100 µM; in assay [10] it was greater than 100 µM.
Take `Cc1ccc2c(=O)cc(-c3ccc(-c4ccccc4)s3)[nH]c2n1`: the TGI was greater than 100 µM in [1]; greater than 100 µM in assay [2]; greater than 76.8 µM in [3]; greater than 100 µM in assay [4]; greater than 100 µM in [5]; greater than 100 µM in assay [6]. For the same compound, the TGI in assay [7], in assay [8], in [9] and in assay [10] was greater than 100 µM in each case.
Regarding `COc1ccc(C(=O)c2[nH]c(Nc3ccc(Cl)cc3)c(C(=S)Nc3ccccc3)c2N)cc1`, the TGI in assay [1], in [2], in assay [3], in [4], in assay [5] and in assay [6] was greater than 100 µM each time. The TGI in [7], in assay [8], in assay [9] and in assay [10] was greater than 100 µM throughout.
Take `O=[As](O)(O)c1ccc(N=Nc2ccc(O)cc2)cc1`: the TGI in assay [1], in assay [2], in assay [3], in assay [4], in [5] and in assay [6] was greater than 100 µM throughout. For the same compound, the TGI in [7], in assay [8], in assay [9] and in assay [10] was greater than 100 µM each time.
With `CC(C)=C/C=C1/CS(=O)(=O)C=C1C`, the TGI in [1], in assay [2], in assay [3], in assay [4], in assay [5] and in assay [6] was greater than 100 µM in each case. The TGI in assay [7], in [8], in assay [9] and in assay [10] was greater than 100 µM in each case.
On to `Brc1ccc(-c2cn3ccncc3n2)cc1`, for which the TGI in [1], in [2], in [3], in [4], in assay [5] and in [6] was greater than 100 µM in each case. Also, the TGI in [7], in assay [8], in [9] and in [10] was greater than 100 µM in each case.
In the case of `CC[C@@H](/C=C\CCC(=O)C[C@H](O)CCC=C(C)C)O[Si](C(C)C)(C(C)C)C(C)C`, the TGI in assay [1], in assay [2], in assay [3], in assay [4], in [5] and in assay [6] was greater than 100 µM throughout. Moreover, the TGI in [7], in assay [8], in [9] and in assay [10] was greater than 100 µM throughout.
Turning to `COC(=O)c1c(O)ccc2c1C1(Cc3ccccc3C1=O)C(O)O2` (stereo not given), the TGI in assay [1] is 30.2 µM; in assay [2], greater than 100 µM; in assay [3], 28.7 µM; in assay [4], greater than 100 µM; in [5] it was 31.1 µM; in assay [6] it was greater than 100 µM. Besides, the TGI in assay [7] is 43.9 µM; in assay [8], greater than 100 µM; in assay [9], greater than 100 µM; in assay [10] it was 45.3 µM.
Take `Cc1ccc(/C=C2\CCCC(CN3CCCCC3)C2=O)cc1` (stereo not given): the TGI in assay [1] is 4.02 µM; in assay [2], 23.9 µM; in [3], 35.4 µM; in assay [4] it was greater than 100 µM; in assay [5], 3.81 µM; in [6], 42.5 µM. The TGI turned out to be 3.39 µM in assay [7], 3.15 µM in assay [8], 9.91 µM in assay [9] and 3.41 µM in [10].
`CC(C)(CC(O)C#N)/[N+]([O-])=[N+](\[O-])C(C)(C)CC(O)C#N` (stereo not given): the TGI in assay [1] is 47.5 µM; in [2] it was 92.9 µM; in assay [3] it was 37.9 µM; in assay [4], 42.5 µM; in assay [5], greater than 100 µM; in assay [6] it was greater than 100 µM. Further, the TGI in [7] is 69.2 µM; in [8], 35.4 µM; in assay [9] it was greater than 100 µM; in assay [10], 82.3 µM.
Consider `Cc1ccc(N=Nc2c(O)c(C(=O)Nc3ccccc3)cc3ccccc23)c([N+](=O)[O-])c1`, for which the TGI in assay [1], in [2], in [3], in assay [4], in [5] and in assay [6] was greater than 100 µM in each case. Moreover, the TGI in assay [7], in assay [8], in [9] and in [10] was greater than 100 µM in each case.
As to `CCOP(=O)(OCC)C(C)(CC)NC` (stereo not given), the TGI in [1], in assay [2], in assay [3], in [4], in assay [5] and in assay [6] was greater than 100 µM in each case. In addition, the TGI in [7], in assay [8], in assay [9] and in assay [10] was greater than 100 µM throughout.
Regarding `CC(C)CN=C(N)N=C(N)N`, the TGI in assay [1], in assay [2], in assay [3], in assay [4], in assay [5] and in [6] was greater than 100 µM in each case. For the same compound, the TGI in assay [7], in assay [8], in assay [9] and in assay [10] was greater than 100 µM throughout.
